# Laboratory results: PubChem BioAssay (NCI)
#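 Five compound concentrations were applied to cells in 96-well plates for 48 hours; endpoints were derived by simple linear interpolation of the resulting dose-response curve. The concentration for 50% growth inhibition is given as GI50. TGI is the concentration that stops growth completely.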
# Tests used:
# Experiment in all cases: NCI tumour cell line growth inhibition, 48 h
# OVCAR-4 ovarian = system: OVCAR-4 ovarian
# T-47D breast = system: T-47D breast
# 786-0 renal = system: 786-0 renal
# KM12 colon = system: KM12 colon
# RXF 393 renal = system: RXF 393 renal
# NCI/ADR-RES ovarian = system: NCI/ADR-RES ovarian
# SNB-19 CNS = system: SNB-19 CNS
# MDA-MB-435 = system: MDA-MB-435
# SF-268 CNS = system: SF-268 CNS
# UACC-257 melanoma = system: UACC-257 melanoma
# SW-620 colon = system: SW-620 colon
# HCT-116 colon = system: HCT-116 colon
# SR leukemia = system: SR leukemia
# SF-295 CNS = system: SF-295 CNS
# UACC-62 melanoma = system: UACC-62 melanoma
# NCI-H23 lung = system: NCI-H23 lung
# HT29 colon = system: HT29 colon
# SK-MEL-28 melanoma = system: SK-MEL-28 melanoma
# OVCAR-8 ovarian = system: OVCAR-8 ovarian
# HL-60(TB) leukemia = system: HL-60(TB) leukemia
# HS 578T breast = system: HS 578T breast
# BT-549 breast = system: BT-549 breast
# U251 CNS = system: U251 CNS
# HCT-15 colon = system: HCT-15 colon
# A498 renal = system: A498 renal
# MALME-3M melanoma = system: MALME-3M melanoma
# TK-10 renal = system: TK-10 renal
# SK-MEL-2 melanoma = system: SK-MEL-2 melanoma
# MCF7 breast = system: MCF7 breast
# NCI-H460 lung = system: NCI-H460 lung
# MOLT-4 leukemia = system: MOLT-4 leukemia
# SN12C renal = system: SN12C renal
# OVCAR-5 ovarian = system: OVCAR-5 ovarian
# UO-31 renal = system: UO-31 renal
# PC-3 prostate = system: PC-3 prostate
# M14 melanoma = system: M14 melanoma
# LOX IMVI melanoma = system: LOX IMVI melanoma
# COLO 205 colon = system: COLO 205 colon
# HOP-92 NSCLC = system: HOP-92 NSCLC
# K-562 leukemia = system: K-562 leukemia
# NCI-H226 lung = system: NCI-H226 lung
# A549 NSCLC = system: A549 NSCLC
# EKVX NSCLC = system: EKVX NSCLC
# SNB-75 CNS = system: SNB-75 CNS
# OVCAR-3 ovarian = system: OVCAR-3 ovarian
# MDA-MB-231 breast = system: MDA-MB-231 breast
# HOP-62 NSCLC = system: HOP-62 NSCLC
# CAKI-1 renal = system: CAKI-1 renal
# RPMI-8226 leukemia = system: RPMI-8226 leukemia
# SK-OV-3 ovarian = system: SK-OV-3 ovarian
# DU-145 prostate = system: DU-145 prostate
# SF-539 CNS = system: SF-539 CNS
# NCI-H522 lung = system: NCI-H522 lung
# CCRF-CEM leukemia = system: CCRF-CEM leukemia
# HCC-2998 colon = system: HCC-2998 colon
# SK-MEL-5 melanoma = system: SK-MEL-5 melanoma
# ACHN renal = system: ACHN renal
compound,measurement,setting,value
CC(C)N(Cc1ccccc1)c1c(S)ssc1=S,GI50,OVCAR-4 ovarian,0.641 µM
same,TGI,OVCAR-4 ovarian,> 100 µM
same,GI50,T-47D breast,1.17 µM
same,TGI,T-47D breast,18.6 µM
same,GI50,786-0 renal,3.65 µM
same,TGI,786-0 renal,> 100 µM
same,GI50,KM12 colon,2.47 µM
same,TGI,KM12 colon,21.7 µM
same,GI50,RXF 393 renal,2.17 µM
same,TGI,RXF 393 renal,10.1 µM
same,GI50,NCI/ADR-RES ovarian,3.33 µM
same,TGI,NCI/ADR-RES ovarian,> 100 µM
same,GI50,SNB-19 CNS,3.76 µM
same,TGI,SNB-19 CNS,> 100 µM
same,GI50,MDA-MB-435,0.694 µM
same,TGI,MDA-MB-435,18.5 µM
same,GI50,SF-268 CNS,2.86 µM
same,TGI,SF-268 CNS,31.7 µM
same,GI50,UACC-257 melanoma,1.54 µM
same,TGI,UACC-257 melanoma,6.2 µM
same,GI50,SW-620 colon,2.69 µM
same,TGI,SW-620 colon,12.7 µM
same,GI50,HCT-116 colon,2.72 µM
same,TGI,HCT-116 colon,26.8 µM
same,GI50,SR leukemia,2.16 µM
same,TGI,SR leukemia,7.89 µM
same,GI50,SF-295 CNS,1.19 µM
same,TGI,SF-295 CNS,11.7 µM
same,GI50,UACC-62 melanoma,0.452 µM
same,TGI,UACC-62 melanoma,15 µM
same,GI50,NCI-H23 lung,3.83 µM
same,TGI,NCI-H23 lung,96.3 µM
same,GI50,HT29 colon,2.29 µM
same,TGI,HT29 colon,9.59 µM
same,GI50,SK-MEL-28 melanoma,2.09 µM
same,TGI,SK-MEL-28 melanoma,17.8 µM
same,GI50,OVCAR-8 ovarian,2.44 µM
same,TGI,OVCAR-8 ovarian,22.2 µM
same,GI50,HL-60(TB) leukemia,1.16 µM
same,TGI,HL-60(TB) leukemia,3.12 µM
same,GI50,HS 578T breast,0.861 µM
same,TGI,HS 578T breast,7.08 µM
same,GI50,BT-549 breast,3.01 µM
same,TGI,BT-549 breast,9.21 µM
same,GI50,U251 CNS,2.58 µM
same,TGI,U251 CNS,15.9 µM
same,GI50,HCT-15 colon,3.16 µM
same,TGI,HCT-15 colon,13.5 µM
same,GI50,A498 renal,0.723 µM
same,TGI,A498 renal,4.12 µM
same,GI50,MALME-3M melanoma,1.65 µM
same,TGI,MALME-3M melanoma,5.99 µM
same,GI50,TK-10 renal,5.08 µM
same,TGI,TK-10 renal,> 100 µM
same,GI50,SK-MEL-2 melanoma,3.53 µM
same,TGI,SK-MEL-2 melanoma,31.1 µM
same,GI50,MCF7 breast,1.57 µM
same,TGI,MCF7 breast,5.02 µM
same,GI50,NCI-H460 lung,2.33 µM
same,TGI,NCI-H460 lung,10.7 µM
same,GI50,MOLT-4 leukemia,1.69 µM
same,TGI,MOLT-4 leukemia,7.39 µM
same,GI50,SN12C renal,2.42 µM
same,TGI,SN12C renal,19.7 µM
same,GI50,OVCAR-5 ovarian,3.56 µM
same,TGI,OVCAR-5 ovarian,> 100 µM
same,GI50,UO-31 renal,3.6 µM
same,TGI,UO-31 renal,70.6 µM
same,GI50,PC-3 prostate,2.23 µM
same,TGI,PC-3 prostate,9.44 µM
same,GI50,M14 melanoma,4.67 µM
same,TGI,M14 melanoma,> 100 µM
same,GI50,LOX IMVI melanoma,3.08 µM
same,TGI,LOX IMVI melanoma,15.5 µM
same,GI50,COLO 205 colon,1.56 µM
same,TGI,COLO 205 colon,4.26 µM
same,GI50,HOP-92 NSCLC,0.342 µM
same,TGI,HOP-92 NSCLC,3.79 µM
same,GI50,K-562 leukemia,0.941 µM
same,TGI,K-562 leukemia,3.81 µM
same,GI50,NCI-H226 lung,3.14 µM
same,TGI,NCI-H226 lung,36.1 µM
same,GI50,A549 NSCLC,2.41 µM
same,TGI,A549 NSCLC,12.9 µM
same,GI50,EKVX NSCLC,2.2 µM
same,TGI,EKVX NSCLC,8.49 µM
same,GI50,SNB-75 CNS,2.98 µM
same,TGI,SNB-75 CNS,26.9 µM
same,GI50,OVCAR-3 ovarian,1.21 µM
same,TGI,OVCAR-3 ovarian,> 100 µM
same,GI50,MDA-MB-231 breast,1.77 µM
same,TGI,MDA-MB-231 breast,5.49 µM
same,GI50,HOP-62 NSCLC,4.24 µM
same,TGI,HOP-62 NSCLC,> 100 µM
same,GI50,CAKI-1 renal,0.661 µM
same,TGI,CAKI-1 renal,> 100 µM
same,GI50,RPMI-8226 leukemia,0.772 µM
same,TGI,RPMI-8226 leukemia,6.27 µM
same,GI50,SK-OV-3 ovarian,2.47 µM
same,TGI,SK-OV-3 ovarian,9.59 µM
same,GI50,DU-145 prostate,3.15 µM
same,TGI,DU-145 prostate,28.7 µM
same,GI50,SF-539 CNS,3.06 µM
same,TGI,SF-539 CNS,10.4 µM
same,GI50,NCI-H522 lung,2.06 µM
same,TGI,NCI-H522 lung,> 100 µM
same,GI50,CCRF-CEM leukemia,0.849 µM
same,TGI,CCRF-CEM leukemia,6.66 µM
same,GI50,HCC-2998 colon,4.36 µM
same,TGI,HCC-2998 colon,74 µM
same,GI50,SK-MEL-5 melanoma,0.605 µM
same,TGI,SK-MEL-5 melanoma,2.82 µM
same,GI50,ACHN renal,1.97 µM
same,TGI,ACHN renal,12.4 µM
